According to patent publication US11193114B2, “Immunogenic peptides for use in the prevention and/or treatment of infectious diseases, autoimmune diseases, immune responses to allofactors, allergic diseases, tumors, graft rejection and immune responses against viral vectors used for gene therapy or gene vaccination” (IMNATE SARL, priority 2010, dated 2021):

Columns and labels:
EG7 tumor cells = assay: Apoptosis of EG7 tumor cells by CD4+ NKT cell lines from peptide-immunized mice (Annexin V / 7-AAD); assay type: cell-based, mouse (C57BL/6, H-2b); conditions: EG7 cells cultured 18 h at ratio 1/1 with NKT cell lines from mice immunized with the peptide
Protocol: C57BL/6 mice (n=6) were immunized by four subcutaneous injections of 50 μg of peptide of SEQ ID NO: 3 in alum carried out at one-week interval.
Such peptide contains a CD1d-restricted NKT cell epitope derived from ovalbumin and a thioreductase motif in flanking residues. A control group (n=6) of mice received physiological serum in alum instead of peptide. Ten days after the last immunization the mice were sacrificed and spleen CD4+ T cells were prepared by magnetic cell sorting. Such cells were stimulated twice with the immunizing peptide in vitro before assessing their activation state as measured by the production of IL-4 and IFN-gamma.
CD4+ NKT cell lines were then assayed in vitro for their capacity to kill EG7 tumor cells. EG7 tumor cells (H-2b) are derived from a thymoma transduced with an ova construct. A CD1d restricted ova epitope is presented by such cells, which is known to be insufficient to trigger NKT activation and tumor cell killing.
EG7 cells were labeled at membrane level with 1 μM DiOC18 (3,3′ dioctadecycloxacarbocyanine perchlorate from Invitrogen). […] After 18 h, cells were harvested and stained for Annexin V and 7-AAD following manufacturer's instructions (Apoptosis Detection kit; BD Biosciences) and analysed on a FACSCantoll flow cytometer (BD Biosciences).

[1] = test system: Factor VIII specific CD4+ T cells; assay: Activation (IL-4, IFN-gamma production) of Factor VIII specific CD4+ T cells from mice immunized with peptide, then injected with human factor VIII; assay type: in vivo, BALB/c Factor VIII KO mice; conditions: mice immunized 4 times with 50 μg peptide vs control group without peptide; spleen CD4+ T cells restimulated in vitro
Protocol: BALB/c Factor VIII KO mice (group A) were immunized 4 times at 1 week interval with 50 μg of peptide 2196, which contains a CD1d-restricted NKT cell epitope and a C-XX-C (SEQ ID NO: 14) thioreductase motif within flanking residues (SEQ ID NO: 1).
Human factor VIII was then injected by the subcutaneous route using 10 IU per injection on 5 occasions separated by one week. Ten days after the last immunization the mice were sacrificed and spleen CD4+ T cells were prepared by magnetic cell sorting. Such cells were stimulated twice with the immunizing peptide and FVIII in vitro before assessing their activation state as measured by the production of IL-4 and IFN-gamma. […] The results (FIG. 1) show a 10-fold reduction of IL-4 production by Factor VIII specific CD4+ T cells obtained from mice immunized with the peptide as compared to the control group, and a 7-fold reduction in the production of IFN-gamma. Results are shown as means+SEM.

[2] = test system: Der p I induced asthma in BALB/c mice; assay: Prevention of Der p I induced allergic asthma by peptide immunization; assay type: in vivo; conditions: 4 injections of 50 μg peptide; Der p I nasal instillation 10 days after last immunization
Description: Allergens from the house dust mite, D. pteronyssinus, are frequently involved in allergic asthma. Der p I is the main allergen of D. pteronyssinus. The sequence of Der p I contains a CD1d binding motif corresponding to amino acid sequence 38 to 44. A peptide of sequence WAFSGVAATES (SEQ ID NO: 12) is produced by synthesis as well as its counterpart containing a thioreductase motif Thus, peptide of CGPCGGFSGVAATES (SEQ ID NO: 8) contains a thioreductase motif (underlined) and a linker of 2 glycines between the motif and the CD1d-binding motif.
Allergic asthma can be induced in BALB/c mice by nasal instillations of 100 μg Der p I administered on 3 consecutive days. Asthma is characterized by bronchial hyperreactivity and attraction of eosinophil infiltrates into the lung.
BALB/c mice are immunized by 4 injections of 50 μg of peptides of either SEQ ID8 or peptide in natural sequence as a control. Der p I is administered by nasal instillation 10 days after the last immunization.

Ad5 viral particles = assay: Anti-Ad5 IgG antibody response after peptide immunization and Ad5 injection (direct binding ELISA); assay type: in vivo, C57BL/6 mice; conditions: four sc injections of 50 μg peptide in alum, then 2 IV Ad5 injections; serum 10 days after last Ad5 injection
Protocol: C57BL/6 mice (n=6) were immunized by four subcutaneous injections of 50 μg of peptide of SEQ ID NO: 2 in alum carried out at one-week interval.
Such peptide contains a CD1d-restricted NKT cell epitope of hex on protein of adenovirus (Ad5) and a thioreductase motif in flanking residues. A control group (n=6) of mice received physiological serum in alum instead of peptide. All mice then received 2 injections of 109 Ad5 viral particles by the IV route, separated by I week. Ten days after the last Ad5 injection, mice were bled and the concentration of total IgG antibodies to Ad5 particles was measured in a direct binding ELISA Briefly, Ad5 viral particles were insolubilized on polystyrene plates, followed by washing and incubation with a dilution of mouse serum. After a second washing, the binding of mouse anti-Ad5 antibodies was detected by addition of a goat antiserum to mouse IgG. […] Results are given in arbitrary units as means+SEM.

[3] = test system: EAE (experimental autoimmune encephalomyelitis) in C57BL/6 mice; assay: Prevention of EAE by pre-immunization with MOG peptide; assay type: in vivo; conditions: four sc immunizations (50 μg) before disease induction with MOG 35-55
Protocol: MOG contains a sequence which binds to CD1d and activates NKT cells. Thus, peptide of sequence PHFLRVPCWKI (SEQ ID NO: 10) is produced by synthesis and a thioreductase-containing peptide of sequence CHGCGGFLRVPCWKI (peptide of SEQ ID NO: 6, in which the thioreductase motif is underlined and a linker of 2 glycines between the motif and the CD1d-binding motif).
Groups of C57BL/6 mice are immunized four times subcutaneously (50 μg) with peptide of SEQ ID6 or, as a control, with peptide in natural sequence. Ten days after the last immunization, all mice, including a group of naive, non-immunized animals, are induced into disease by subcutaneous injection of 100 μg MOG 35-55 peptide/400 μg Mycobacterium butyricum in CFA and ip injection of 300 ng Bordetella pertussis in NaCl. At day +2, a second injection of B. pertussis is given.
Signs of EAE are followed over time.

NOD mice = assay: Prevention of spontaneous insulin-dependent diabetes in NOD mice with GAD65 derived peptides; assay type: in vivo; conditions: female NOD mice, 4 sc injections from the age of 4 weeks
Description: GAD65 contains amino acid sequences with the capacity to bind to CD1d. Thus, the sequence PQHTNVCFWFV (SEQ ID NO: 11), corresponding to amino acids 501 to 507 of GAD65, is produced by synthesis, as well as its counterpart encompassing a thioreductase motif within flanking residues: peptide of CHGCGGHTNVCFWFV (SEQ ID NO: 7) (with the thioreductase motif underlined and a linker of 2 glycines between the motif and the CD1d binding motif).
Female NOD mice are immunized from the age of 4 weeks by 4 subcutaneous injections of peptides of either SEQ ID7 or natural sequence, and glycaemia is followed in each of these groups, by comparison to a non-immunized group.

[4] = test system: BALB/c-derived ALK+ tumor cell line (VAC); assay: Killing of VAC ALK+ tumor cells by NKT cells stimulated with ALK peptide (Annexin-V binding by FACS); assay type: cell-based, BALB/c mice; conditions: VAC cells co-cultured with BALB/c NKT cells stimulated with the peptide; mean of triplicates
Protocol: Co-culture with a BALB/c-derived ALK+tumor cell line (VAC) was carried out as described above. Apoptosis of tumor cells was measured by evaluating Annexin-V binding by FACS.

R113 tumor cells = assay: Killing of R113 tumor cells by NKT cells stimulated with ALK peptide (Annexin V binding); assay type: cell-based, C57BL/6 mice; conditions: 20 h co-culture with NKT cells stimulated with the peptide
Protocol: CD4 T cells (C57BL/6, H-2b background) obtained from the spleen of naive mice were stimulated four times with autologous dendritic cells loaded with a CD1d-restricted NKT cell epitope of ALK, to which a thioreductase motif of the C-XX-C (SEQ ID NO: 14) format was added within flanking residues. (Peptide of CHGCGGWLQIVTWWGPGS (SEQ ID NO: 5) (with thioreductase motif underlined and 2 glycines used as linker between the motif and the CD1d-restricted epitope)).
As NKT cells have per se a cytolytic activity, we included cells which were stimulated in parallel experiments by exposure to the same CD1d-restricted NKT epitope in natural sequence, without thioredox motif (WLQIVTWWGPGS) (SEQ ID NO: 9).
Ten days after the last stimulation, CD4 T cells were washed and added to cell culture microplates containing 104 Rl13 tum or cells at a 2 to 1 ratio (CD4 to tum or cells). Rl13 is a tumor B cell line obtained from C57BL/6 mice, which constitutively expresses ALK.
After 20 h of co-culture, Rl13 tumor cells were evaluated for Annexin V binding used as marker of cell apoptosis.

Substance: CGH CGG FDKLPGF (CGHCGGFDKLPGF) [SEQ ID3]
- apoptosis of EG7 tumor cells (EG7 tumor cells): are induced into apoptosis

Substance: CGH CGG FTN MFA TWS PSK (CGHCGGFTNMFATWSPSK) [peptide 2196]
- reduction in the production of IFN-gamma by Factor VIII specific CD4+ T cells [1]: 7 fold
- reduction of IL-4 production by Factor VIII specific CD4+ T cells [1]: 10 fold

Substance: CGPCGGFSGVAATES [SEQ ID8]
- airway reactivity to inhalation of methacholine [2]: do not develop airway reactivity to inhalation of methacholine
- lung infiltration with eosinophils [2]: do not show lung infiltration with eosinophils

Substance: CHG CGG FIGLMYY (CHGCGGFIGLMYY) [SEQ ID NO: 2]
- total IgG antibodies to Ad5 particles (Ad5 viral particles): did not produce significant amounts of antibodies

Substance: CHGCGGFLRVPCWKI [SEQ ID6, thioreductase-containing MOG peptide]
- signs of EAE [3]: do not develop EAE

Substance: CHGCGGHTNVCFWFV [SEQ ID7]
- glycaemia (NOD mice): prevented from hyperglycaemia

Substance: CHGCGGWLQIVTWWGPGS [peptide of sequence 1]
- tumor cell death (Annexin-V binding) [4]: 25%
- increase in tumor cell death as compared to tumor cells cultured alone (R113 tumor cells): 4.5 fold
- tumor cell death (Annexin V binding) (R113 tumor cells; 2 to 1 ratio, mean of triplicates): 18%

Substance: PQHTNVCFWFV [SEQ ID NO: 11, reference compound]
- glycaemia (NOD mice): develop hyperglycaemia starting after the 14th week
